Patent US20220233566A1, “NOVEL CARBONATE COMPOUND HAVING PYRROLOPYRIMIDINE SKELETON OR PHARMACEUTICALLY ACCEPTABLE SALT THEREOF” (TAIHO PHARMACEUTICAL CO., LTD., priority 2019, published 2022)
One block for each compound: values may come before it.

Key:
[1] = Presence of prodrug in mouse and absorbency (plasma AUC after oral administration); assay type: in vivo; conditions: male, Balb/cA, mouse, 9.9 umol/kg, mice, 9.9 μmol/kg, administered compound itself in plasma, read-out: AUC0-6hr
Method: The dosage amounts of the compounds of Comparative Examples 1 to 5 and Examples 1 to 26 are those (mole/10 mL/kg) shown in Tables. Solutions for administration were prepared with an 0.5% aqueous solutions of HPMC so as to satisfy the dosage amounts.
Note that, the “amount of mole/10 mL/kg” means as follows: for example “10 mmol/10 mL/kg” means that 10 mmol of a test compound per body-weight (1 kg) of a mouse was dispersed or dissolved in a solution (10 mL) for administration. The same applies hereinafter.
The solutions for administration prepared above were orally administered to mice (Balb/cA, male) not fasted each by use of an oral administration sonde.
The mice were anesthetized with isoflurane 0.5, 1, 2, 4 and 6 hours after administration and blood was taken from the facial vein by use of a specific needle (animal lancet) and a heparin-coated hematocrit tube.
The blood sampled was immediately centrifuged (13000 rpm, 2 minutes, 4° C.) to prepare the plasma samples. After proteins were removed from the plasma samples, the concentrations of the test compound in the plasma samples were measured by LC/MS/MS.
The value of “area under the curve” (AUC) of drug concentration in blood versus time was calculated using analysis software such as Phoenix (registered trademark) WinNonlin (registered trademark).
In Table 3, “Comparative Example 1” and “Comparative Example 2” represent the “compound (Br form) of Comparative Example 1” and the “compound (I form) of Comparative Example 2”, respectively. In Table 4, “Comparative Example 6” represents the “compound (C1 form) of Comparative Example 6”.

[2] = test system: H2122; assay: Growth suppression activity to human tumor cell line (Evaluation 2); assay type: cell-based; conditions: NCI-H2122, 72 h, Human lung cancer, H2122, 3 days
Method: (§1) Human tumor cell lines different in type were suspended in mediums, seeded in individual wells of a multi-well plate and cultured. On the day after initiation of culture, serially diluted solutions of a compound were added. Culture was carried out for further 3 days. Cells were counted by a CellTiter-Glo (manufactured by Promega KK) in accordance with the protocol recommended by Promega KK. Cell viability was calculated in accordance with the equation shown below and the concentration (IC50 (nM)) of the compound at which 50% of cell growth is inhibited was obtained.
(§2) T: Intensity of light emitted from a well containing a compound
(§3) C: Intensity of light emitted from a well containing no compound

[3] = test system: H358; assay: as above; assay type: cell-based; conditions: NCI-H358, 72 h, Human lung cancer, H358, 3 days
Method: as §1, §2, §3

[4] = test system: H1650; assay: as above; assay type: cell-based; conditions: NCI-H1650, 72 h, Human lung cancer, H1650, 3 days
Method: as §1, §2, §3

[5] = test system: RKO; assay: as above; assay type: cell-based; conditions: 72 h, Human colorectal cancer, 3 days
Method: as §1, §2, §3

[6] = test system: SK-BR-3; assay: as above; assay type: cell-based; conditions: Homo sapiens, SK-BR-3, 72 h, Human breast cancer, SK-BR-3, 3 days
Method: as §1, §2, §3

[7] = test system: A431; assay: as above; assay type: cell-based; conditions: Homo sapiens, A-431, 72 h, Human epidermoid carcinoma, A431, 3 days
Method: as §1, §2, §3

[8] = test system: HCC827; assay: as above; assay type: cell-based; conditions: Homo sapiens, HCC827, 72 h, Human lung cancer, HCC827, 3 days
Method: as §1, §2, §3

[9] = test system: A549; assay: as above; assay type: cell-based; conditions: A549, 72 h, Human lung cancer, A549, 3 days
Method: as §1, §2, §3

[10] = test system: H520; assay: Growth suppression activity to human tumor cell line (Evaluation 3); assay type: cell-based; conditions: NCI-H520, 72 h; Human lung cancer, H520, 3 days
Method: as §1, with “of a” for “of the”
as §2, §3

[11] = test system: A427; assay: as above; assay type: cell-based; conditions: A-427, 72 h; Human lung cancer, A427, 3 days
Method: as §1, with “of a” for “of the”
as §2, §3

[12] = test system: human hematopoietic organ tumor cell line (MV-4-11); assay: Evaluation 3 of antitumor effect and toxicity in mouse (MV-4-11 subcutaneous transplant); assay type: in vivo
Method: (§4) The day of grouping mice was determined Day 0.
On the final day of evaluation, the blood cell components (lymphocytes: LYMPH (Lymphocytes)) of individual groups were analyzed.

[13] = test system: human brain tumor cell line (U-87 MG); assay: Evaluation 1 of antitumor effect and toxicity in mouse (U-87 MG subcutaneous transplant); assay type: in vivo, BALB/cA Jcl-nu/nu mice
Method: as §4
IRs of Comparative Example 2-compound administration group and Example 1-compound administration group on the final day of evaluation (Day 6 in Comparative Example 2 and Day 13 in Example 1) are shown in FIG. 1 and BWC versus elapsed days is shown in FIG. 2.

[14] = test system: human brain tumor cell line (U-87 MG); assay: Evaluation 2 of antitumor effect and toxicity in mouse (U-87 MG subcutaneous transplant); assay type: in vivo, BALB/cA Jcl-nu/nu mice; conditions: Day 6, oral every day, Example 5 14.6 mg/kg/day vs Comparative Example 2 12 mg/kg/day
Method: as §4
In order to evaluate “effect versus toxicity”, a ratio based on IR and BWC (effect index) was obtained, and Example 5-compound administration group was compared to Comparative Example 2-compound administration group.
Effect indexes of Comparative Example 2-Compound (I form) and Example 5-compound administration groups on Day 6 are shown in FIG. 3.

[15] = MV-4-11, oral every day from Day 1, Example 1 10.8 mg/kg/day
[16] = U-87 MG, oral every day from Day 1, Example 1 15.4 mg/kg/day

- AUC(0-t) [1]: 2.07 µM·h
- IC50 [2]: 58 nM
- IC50 [3]: 273 nM
- IC50 [4]: 31 nM
- IC50 [5]: 135 nM
- IC50 [6]: 88 nM
- IC50 [7]: 124 nM
- IC50 [8]: 795 nM
- IC50 [9]: 54 nM
Compound: Nc1ncnc2c1c(Cl)cn2[C@@H]1O[C@H](CO)[C@@H](O)[C@@H]1F [Comparative Example 6, (2R,3R,4S,5R)-5-(4-amino-5-chloro-7H-pyrrolo[2,3-d]pyrimidin-7-yl)-4-fluoro-2-(hydroxymethyl) tetrahydrofuran-3-ol]

- IC50 [10]: 465 nM
- IC50 [11]: 1140 nM
Compound: Nc1ncnc2c1c(I)cn2[C@@H]1O[C@H](CO)C(O)C1(F)F (stereo partly drawn) [Comparative Example 7, (2R,3R,4S,5R)-5-(4-amino-5-iodo-7H-pyrrolo[2,3-d]pyrimidin-7-yl)-4,4-difluoro-2-(hydroxymethyl) tetrahydrofuran-3-ol, reference compound]

Compound: Nc1ncnc2c1c(I)cn2[C@@H]1O[C@H](CO)[C@@H](OC(=O)OC2CCCC2)[C@@H]1F [Example 1, (2R,3R,4S,5R)-5-(4-amino-5-iodo-7H-pyrrolo[2,3-d]pyrimidin-7-yl)-4-fluoro-2-(hydroxymethyl)tetrahydrofuran-3-yl cyclopentyl carbonate]
- antitumor effect (RTV) [12, 15]: remarkable antitumor effect (tumor regression was confirmed)
- effect on body weight and hematological toxicity (BWC, lymphocytes T/C %) [12, 15]: low
- continuation of administration compared to Comparative Example 2-compound administration group ([12]; MV-4-11, oral every day, Example 1 10.8 mg/kg/day vs Comparative Example 2 12 mg/kg/day): longer
- antitumor effect (tumor-growth inhibition rate, IR) [13, 16]: high antitumor effect
- effect on body weight (BWC) [13, 16]: mild
- continuation of administration compared to Comparative Example 2-compound administration group ([13]; U-87 MG, oral every day, Example 1 15.4 mg/kg/day vs Comparative Example 2 12 mg/kg/day): longer
- final day of evaluation (administration continued as long as weight loss was acceptable, until 20% or more) ([13]; oral every day, Comparative Example 2 12 mg/kg/day, Example 1 15.4 mg/kg/day): 13 days

Compound: CC(C)OC(=O)O[C@H]1[C@H](F)[C@H](n2cc(I)c3c(N)ncnc32)O[C@@H]1CO [Example 5, (2R,3R,4S,5R)-5-(4-Amino-5-iodo-7H-pyrrolo[2,3-d]pyrimidin-7-yl)-4-fluoro-2-(hydroxymethyl)tetrahydrofuran-3-yl isopropyl carbonate]
- effect versus toxicity (effect index, ratio based on IR and BWC) [14]: high compared to that of Comparative Example 2-compound administration group
